{"source": "patent US9701689B2", "about": "“Substituted pyridines and pyridazines as CCR10 receptor inhibitors” (KYOWA HAKKO KIRIN CO., LTD., priority 2012, dated 2017)", "target": "T1, human CCR10 (Homo sapiens, UniProt P46092)", "T1 construct": "expressed in transfected cells; host or cells: KJMGER8 cells (Namalwa cell-derived line), beta-estradiol-induced; hCCR10G16 cells", "T1 sequence (P46092 1-362)": "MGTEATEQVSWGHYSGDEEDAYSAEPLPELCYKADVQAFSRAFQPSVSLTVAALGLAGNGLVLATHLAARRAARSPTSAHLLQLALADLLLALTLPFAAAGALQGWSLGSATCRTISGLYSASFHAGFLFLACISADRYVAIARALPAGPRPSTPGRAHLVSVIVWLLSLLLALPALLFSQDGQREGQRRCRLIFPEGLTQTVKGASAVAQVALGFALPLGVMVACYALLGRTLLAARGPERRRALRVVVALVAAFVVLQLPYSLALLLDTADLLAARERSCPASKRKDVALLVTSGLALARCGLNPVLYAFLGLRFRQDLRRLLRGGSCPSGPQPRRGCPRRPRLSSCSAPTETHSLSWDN", "assay": "CCR10 antagonistic effect: calcium assay of human CCR10 (CTACK-induced increase of intracellular calcium in hCCR10G16 cells)", "format": "cell-based", "conditions": "at a concentration of not more than 1000 nmol/L; human CCR10-expressing hCCR10G16 cells, 300 nmol/L CTACK added; read-out: inhibition of increase in the calcium ion concentration", "summary_of_the_method": "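Inhibition of CTACK-evoked calcium flux (max minus min Fluo-3 fluorescence over ~5 min, FDSS) was calculated against control in β-estradiol-induced human CCR10/Gα16 KJMGER8 cells, after 30 min compound preincubation at 37 °C; CTACK added from a 300 nmol/L solution.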"}
{"smiles": "NS(=O)(=O)c1ncc(C(=O)N2CCN(c3ccc(F)cc3)C(=O)C2)c(NC2(c3ccccc3)CC2)c1Cl", "note": "[Compound 278, 3-chloro-5-[4-(4-fluorophenyl)-3-oxopiperazine-1-carbonyl]-4-(1-phenylcyclopropylamino)pyridine-2-sulfonamide]", "values": [{"measurement": "inhibition at up to 1 µM", "value": "≥ 50", "unit": "%"}]}
{"smiles": "Cc1c(S(=O)(=O)Nc2ccon2)ncc(C(=O)N2CCC(c3ccc(F)cc3)CC2)c1Nc1ccc(Cl)c(Cl)c1", "note": "[Compound 279, 4-(3,4-dichlorophenylamino)-5-[4-(4-fluorophenyl)piperidine-1-carbonyl]-N-(isoxazol-3-yl)-3-methylpyridine-2-sulfonamide]", "values": [{"measurement": "inhibition at up to 1 µM", "value": "≥ 50", "unit": "%"}]}
{"smiles": "Cc1c(S(=O)(=O)Nc2ccon2)ncc(C(=O)N2CCC(c3ccc(F)cc3)CC2)c1Nc1ccc(Cl)cc1Cl", "note": "[Compound 280, 4-(2,4-dichlorophenylamino)-5-[4-(4-fluorophenyl)piperidine-1-carbonyl]-N-(isoxazol-3-yl)-3-methylpyridine-2-sulfonamide]", "values": [{"measurement": "inhibition at up to 1 µM", "value": "≥ 50", "unit": "%"}]}
{"smiles": "Cc1c(S(=O)(=O)Nc2ccon2)ncc(C(=O)N2CCC(c3ccc(F)cc3)CC2)c1Nc1cc(Cl)ccc1Cl", "note": "[Compound 281, 4-(2,5-dichlorophenylamino)-5-[4-(4-fluorophenyl)piperidine-1-carbonyl]-N-(isoxazol-3-yl)-3-methylpyridine-2-sulfonamide]", "values": [{"measurement": "inhibition at up to 1 µM", "value": "≥ 50", "unit": "%"}]}
{"smiles": "CN(Nc1c(C(=O)N2CCC(c3ccc(F)cc3)CC2)cnc(S(N)(=O)=O)c1Cl)c1ccccc1", "note": "[Compound 282, 3-chloro-5-[4-(4-fluorophenyl)piperidine-1-carbonyl]-4-(2-methyl-2-phenylhydrazinyl)pyridine-2-sulfonamide]", "values": [{"measurement": "inhibition at up to 1 µM", "value": "≥ 50", "unit": "%"}]}
{"smiles": "NS(=O)(=O)c1ncc(C(=O)N2CC(c3ccc(F)cc3)C2)c(Nc2cccc(Cl)c2)c1Cl", "note": "[Compound 283, 3-chloro-4-(3-chlorophenylamino)-5-[3-(4-fluorophenyl)azetidine-1-carbonyl]pyridine-2-sulfonamide]", "values": [{"measurement": "inhibition at up to 1 µM", "value": "≥ 50", "unit": "%"}]}
{"smiles": "Cc1c(S(N)(=O)=O)ncc(C(=O)N2CC(c3ccc(F)cc3)C2)c1NCc1ccccc1", "note": "[Compound 284, 4-(benzylamino)-5-[3-(4-fluorophenyl)azetidine-1-carbonyl]-3-methylpyridine-2-sulfonamide]", "values": [{"measurement": "inhibition at up to 1 µM", "value": "≥ 50", "unit": "%"}]}
{"smiles": "Cc1c(S(N)(=O)=O)ncc(C(=O)N2CC(c3ccc(F)cc3)C2)c1Nc1cccc(Cl)c1", "note": "[Compound 285, 4-(3-chlorophenylamino)-5-[3-(4-fluorophenyl)azetidine-1-carbonyl]-3-methylpyridine-2-sulfonamide]", "values": [{"measurement": "inhibition at up to 1 µM", "value": "≥ 50", "unit": "%"}]}
{"smiles": "CCc1c(S(=O)(=O)Nc2ccon2)ncc(C(=O)N2CCC(c3ccc(F)cc3)CC2)c1Nc1ccccc1C", "note": "[Compound 287, 3-ethyl-5-[4-(4-fluorophenyl)piperidine-1-carbonyl]-N-(isoxazol-3-yl)-4-(o-tolylamino)pyridine-2-sulfonamide]", "values": [{"measurement": "inhibition at up to 1 µM", "value": "≥ 50", "unit": "%"}]}
{"smiles": "N#Cc1ccc(C#N)c(Nc2c(C(=O)N3CCC(c4ccc(F)cc4)CC3)cnc(S(N)(=O)=O)c2Cl)c1", "note": "[Compound 288, 3-chloro-4-(2,5-dicyanophenylamino)-5-[4-(4-fluorophenyl)piperidine-1-carbonyl]pyridine-2-sulfonamide]", "values": [{"measurement": "inhibition at up to 1 µM", "value": "≥ 50", "unit": "%"}]}
{"smiles": "Cc1ccc(Oc2c(C(=O)N3CCC(c4ccc(F)cc4)CC3)cnc(S(N)(=O)=O)c2C)cc1", "note": "[Compound 289, 5-[4-(4-fluorophenyl)piperidine-1-carbonyl]-3-methyl-4-(p-tolyloxy)pyridine-2-sulfonamide]", "values": [{"measurement": "inhibition at up to 1 µM", "value": "≥ 50", "unit": "%"}]}
{"smiles": "N#Cc1ccc(Cl)cc1Nc1c(C(=O)N2CCC(c3ccc(F)cc3)CC2)cnc(S(N)(=O)=O)c1Cl", "note": "[Compound 290, 3-chloro-4-(5-chloro-2-cyanophenylamino)-5-[4-(4-fluorophenyl)piperidine-1-carbonyl]pyridine-2-sulfonamide]", "values": [{"measurement": "inhibition at up to 1 µM", "value": "≥ 50", "unit": "%"}]}
{"smiles": "Cc1ccccc1Nc1c(C(=O)N2CC(c3ccc(F)cc3)C2)cnc(S(=O)(=O)Nc2ccon2)c1C", "note": "[Compound 292, 5-[3-(4-fluorophenyl)azetidine-1-carbonyl]-N-(isoxazol-3-yl)-3-methyl-4-(o-tolylamino)pyridine-2-sulfonamide]", "values": [{"measurement": "inhibition at up to 1 µM", "value": "≥ 50", "unit": "%"}]}
{"smiles": "CCc1c(S(=O)(=O)Nc2ccon2)ncc(C(=O)N2CCC(c3ccc(F)cc3)CC2)c1Nc1cccc(F)c1C", "note": "[Compound 294, 3-ethyl-4-(3-fluoro-2-methylphenylamino)-5-[4-(4-fluorophenyl)piperidine-1-carbonyl]-N-(isoxazol-3-yl)pyridine-2-sulfonamide]", "values": [{"measurement": "inhibition at up to 1 µM", "value": "≥ 50", "unit": "%"}]}
{"smiles": "COC1(c2ccc(F)cc2)CCN(C(=O)c2cnc(S(N)(=O)=O)c(Cl)c2NC2(c3ccccc3)CC2)CC1", "note": "[Compound 295, 3-chloro-5-[4-(4-fluorophenyl)-4-methoxypiperidine-1-carbonyl]-4-(1-phenylcyclopropylamino)pyridine-2-sulfonamide]", "values": [{"measurement": "inhibition at up to 1 µM", "value": "≥ 50", "unit": "%"}]}
{"smiles": "NS(=O)(=O)c1ncc(C(=O)N2CCC3(CC2)COc2ccccc23)c(NC2(c3ccccc3)CC2)c1Cl", "note": "[Compound 297, 3-chloro-4-(1-phenylcyclopropylamino)-5-(2H-spiro[benzofuran-3,4′-piperidin]-1′-ylcarbonyl)pyridine-2-sulfonamide]", "values": [{"measurement": "inhibition at up to 1 µM", "value": "≥ 50", "unit": "%"}]}
{"smiles": "Cc1c(S(=O)(=O)Nc2ccon2)ncc(C(=O)N2CCC(c3ccc(F)cc3)CC2)c1Nc1ccc(C#N)cc1", "note": "[Compound 298, 4-(4-cyanophenylamino)-5-[4-(4-fluorophenyl)piperidine-1-carbonyl]-N-(isoxazol-3-yl)-3-methylpyridine-2-sulfonamide]", "values": [{"measurement": "inhibition at up to 1 µM", "value": "≥ 50", "unit": "%"}]}
{"smiles": "Cc1cc(NS(=O)(=O)c2ncc(C(=O)N3CCC(c4ccc(F)cc4)CC3)c(Nc3ccc(F)cc3)c2C)sn1", "note": "[Compound 299, 5-[4-(4-fluorophenyl)piperidine-1-carbonyl]-4-(4-fluorophenylamino)-3-methyl-N-(3-methylisothiazol-5-yl)pyridine-2-sulfonamide]", "values": [{"measurement": "inhibition at up to 1 µM", "value": "≥ 50", "unit": "%"}]}
{"smiles": "Cc1ccc(Nc2c(C(=O)N3CCC(c4ccc(F)cc4)CC3)cnc(S(=O)(=O)Nc3cc(C)ns3)c2C)cc1", "note": "[Compound 300, 5-[4-(4-fluorophenyl)piperidine-1-carbonyl]-3-methyl-N-(3-methylisothiazol-5-yl)-4-(p-tolylamino)pyridine-2-sulfonamide]", "values": [{"measurement": "inhibition at up to 1 µM", "value": "≥ 50", "unit": "%"}]}
{"smiles": "Cc1cc(NS(=O)(=O)c2ncc(C(=O)N3CCC(c4ccc(F)cc4)CC3)c(Nc3ccc(F)c(F)c3)c2C)sn1", "note": "[Compound 301, 4-(3,4-difluorophenylamino)-5-[4-(4-fluorophenyl)piperidine-1-carbonyl]-3-methyl-N-(3-methylisothiazol-5-yl)pyridine-2-sulfonamide]", "values": [{"measurement": "inhibition at up to 1 µM", "value": "≥ 50", "unit": "%"}]}
{"smiles": "NS(=O)(=O)c1ncc(C(=O)N2CCC(c3ccc(F)cc3)CC2)c(Nc2ccc(Cl)cc2)c1Cl", "note": "[Compound 302, 3-chloro-4-(4-chlorophenylamino)-5-[4-(4-fluorophenyl)piperidine-1-carbonyl]pyridine-2-sulfonamide]", "values": [{"measurement": "inhibition at up to 1 µM", "value": "≥ 50", "unit": "%"}]}
{"smiles": "CC(=O)c1ccc(C)c(NC2=CC=NC(S(N)(=O)=O)C2(Cl)C(=O)N2CCC(c3ccc(F)cc3)CC2)c1", "note": "(centres unmarked) [Compound 303, 4-(5-acetyl-2-methylphenylamino)-3-chloro-3-[4-(4-fluorophenyl)piperidine-1-carbonyl]pyridine-2-sulfonamide]", "values": [{"measurement": "inhibition at up to 1 µM", "value": "≥ 50", "unit": "%"}]}
{"smiles": "COC1(c2ccc(F)cc2)CCN(C(=O)c2cnc(S(N)(=O)=O)c(C)c2Nc2ccccc2C)CC1", "note": "[Compound 304, 5-[4-(4-fluorophenyl)-4-methoxypiperidine-1-carbonyl]-3-methyl-4-(o-tolylamino)pyridine-2-sulfonamide]", "values": [{"measurement": "inhibition at up to 1 µM", "value": "≥ 50", "unit": "%"}]}
{"smiles": "Cc1ccccc1Nc1c(C(=O)N2CCC3(CC2)COc2ccccc23)cnc(S(N)(=O)=O)c1C", "note": "[Compound 305, 3-methyl-5-(2H-spiro[benzofuran-3,4′-piperidin]-1′-ylcarbonyl)-4-(o-tolylamino)pyridine-2-sulfonamide]", "values": [{"measurement": "inhibition at up to 1 µM", "value": "≥ 50", "unit": "%"}]}
{"smiles": "COC1(c2ccc(F)cc2)CCN(C(=O)c2cnc(S(N)(=O)=O)c(Cl)c2Nc2cccc(Cl)c2)CC1", "note": "[Compound 306, 3-chloro-4-(3-chlorophenylamino)-5-[4-(4-fluorophenyl)-4-methoxypiperidine-1-carbonyl]pyridine-2-sulfonamide]", "values": [{"measurement": "inhibition at up to 1 µM", "value": "≥ 50", "unit": "%"}]}
{"smiles": "NS(=O)(=O)c1ncc(C(=O)N2CCC3(CC2)COc2ccccc23)c(Nc2cccc(Cl)c2)c1Cl", "note": "[Compound 307, 3-chloro-4-(3-chlorophenylamino)-5-(2H-spiro[benzofuran-3,4′-piperidine]-1′-ylcarbonyl)pyridine-2-sulfonamide]", "values": [{"measurement": "inhibition at up to 1 µM", "value": "≥ 50", "unit": "%"}]}
{"smiles": "NS(=O)(=O)c1ncc(C(=O)N2CCC(c3ccccc3)CC2)c(Nc2cccc(Cl)c2)c1Cl", "note": "[Compound 308, 3-chloro-4-(3-chlorophenylamino)-5-(4-phenylpiperidine-1-carbonyl)pyridine-2-sulfonamide]", "values": [{"measurement": "inhibition at up to 1 µM", "value": "≥ 50", "unit": "%"}]}
{"smiles": "Cc1ccc(Cl)cc1Nc1c(C(=O)N2CCC(c3ccccc3)CC2)cnc(S(N)(=O)=O)c1Cl", "note": "[Compound 309, 3-chloro-4-(5-chloro-2-methylphenylamino)-5-(4-phenylpiperidine-1-carbonyl)pyridine-2-sulfonamide]", "values": [{"measurement": "inhibition at up to 1 µM", "value": "≥ 50", "unit": "%"}]}
{"smiles": "CCc1ccc(Nc2c(C(=O)N3CCC(c4ccc(F)cc4)CC3)cnc(S(N)(=O)=O)c2Cl)cc1", "note": "[Compound 310, 3-chloro-4-(4-ethylphenylamino)-5-[4-(4-fluorophenyl)piperidine-1-carbonyl]pyridine-2-sulfonamide]", "values": [{"measurement": "inhibition at up to 1 µM", "value": "≥ 50", "unit": "%"}]}
